In publication PMC1283537, “Systematic Discovery of New Recognition Peptides Mediating Protein Interaction Networks” (PLoS Biology, 2005):
Each block holds one sequence with its values, some of them ahead of it. Where no end group is shown, it is not given here.

Experiments:
[1] = tested on: Cdlc2 (Dynein light chain 2); test: Fluorescence polarization binding of FITC-labelled peptides to Cdlc2; parameters: species or system Drosophila melanogaster; details: FITC-labelled peptide 10 nM, PBS pH 7.4, protein concentrations 5–400 μM
[2] = molecular target: T1, protein phosphatase 1 (PP1) (Homo sapiens, UniProt P36873); test: Fluorescence polarization binding of FITC-labelled peptides to PP1; parameters: species or system H. sapiens
T1 construct: made in house; host or cells: E. coli BL21(DE3)
T1 sequence (P36873 whole entry): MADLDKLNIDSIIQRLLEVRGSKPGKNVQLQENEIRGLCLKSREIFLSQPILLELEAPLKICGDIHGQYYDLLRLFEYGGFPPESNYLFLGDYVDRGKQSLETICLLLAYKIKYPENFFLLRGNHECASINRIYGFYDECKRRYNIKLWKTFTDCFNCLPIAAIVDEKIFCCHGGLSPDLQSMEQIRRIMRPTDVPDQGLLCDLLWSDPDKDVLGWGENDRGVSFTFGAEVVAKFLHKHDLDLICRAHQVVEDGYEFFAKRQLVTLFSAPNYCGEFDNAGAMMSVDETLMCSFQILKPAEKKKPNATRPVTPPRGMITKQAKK

Translin = molecular target: T2, Translin (Drosophila melanogaster, UniProt Q7JVK6); test: Fluorescence polarization binding of FITC-labelled peptides to Translin; details: FITC N-terminal labeled peptide 10 nM in PBS pH 7.4, 5 min at room temperature, non-linear regression on three independent experiments
T2 sequence (Q7JVK6 1-235): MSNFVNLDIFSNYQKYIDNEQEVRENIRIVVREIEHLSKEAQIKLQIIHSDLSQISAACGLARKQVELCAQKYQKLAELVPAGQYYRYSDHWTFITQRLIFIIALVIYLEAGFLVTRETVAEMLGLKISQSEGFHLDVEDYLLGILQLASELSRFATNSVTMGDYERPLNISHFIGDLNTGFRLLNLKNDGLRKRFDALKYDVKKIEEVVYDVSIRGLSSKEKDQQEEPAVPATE

abl-SH3 domain = molecular target: T3, abl-SH3 domain (Homo sapiens, UniProt P00519); test: Fluorescence polarization preliminary test with abl-SH3 binding peptide; details: FITC N-terminal labeled peptide
T3 construct: preparation of human abl-SH3 domain [9]; made in house
T3 sequence (P00519 61-121 limits assumed): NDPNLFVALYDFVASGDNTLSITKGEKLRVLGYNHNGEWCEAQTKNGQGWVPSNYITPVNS

binding to Cdlc2 [1]: No binding
Sequence: ERAIQTENA [CG33213/104-112, Cdlc2 native peptide with the IQTE variant motif]

binding to Cdlc2 [1]: No binding
Sequence: PFGTQTSPP [CG32130/215-223, additional peptide containing the canonical TQT motif, reference compound]

Kd ([2]; FITC N-terminal labeled peptide 10 nM in PBS pH 7.4, 5 min at room temperature, normalized to extrapolated Bmax, non-linear regression, three independent experiments): 65 ± 14 µM | specific binding to PP1 ([2]; result in words): retain some affinity
Sequence: VSASPAAVAAPV [Mutant]

binding to Cdlc2 [1]: No binding
Sequence: ERAAAAENA [mutant of the Cdlc2 native peptide, motif positions mutated to Alanine]

Continued, sequence first:

Sequence: VSASPAAVAAPV (also: FITC label, position not given here) [Mutant]
Kd (Translin): > 300 µM

Sequence: GAPTYSPPPPP [GAPTYSPPPPP]
Kd (abl-SH3 domain): 3 ± 0.4 µM
